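Five concentrations, 48 hours, 96-well plates. GI50 is the concentration that inhibits growth by half.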 Calls of active or inactive are those of the source. No stated cut-off is given here; in the data, active = GI50 up to about 1.1 µM and inactive = higher.
Experiments:
Test in all cases: NCI tumour cell line growth inhibition, 48 h
[1] = tested on: SN12C
[2] = tested on: HT-29
[3] = tested on: SNB-19
[4] = tested on: OVCAR-4
[5] = tested on: MOLT-4
[6] = tested on: EKVX
[7] = tested on: HOP-92
[8] = tested on: UO-31
[9] = tested on: RXF 393
[10] = tested on: NCI-H522
[11] = tested on: CAKI-1
[12] = tested on: KM12
[13] = tested on: CCRF-CEM
[14] = tested on: OVCAR-8
[15] = tested on: K562
[16] = tested on: SK-MEL-5
[17] = tested on: SW-620
[18] = tested on: HOP-62
[19] = tested on: HCC 2998

Structure (SMILES)	GI50 [1]	GI50 [2]	GI50 [3]	GI50 [4]	GI50 [5]	GI50 [6]	GI50 [7]	GI50 [8]	GI50 [9]	GI50 [10]	GI50 [11]	GI50 [12]	GI50 [13]	GI50 [14]	GI50 [15]	GI50 [16]	GI50 [17]	GI50 [18]	GI50 [19]
O=c1[nH]nc(N/N=C\c2ccc(Cl)cc2)c2ccccc12	27.5 µM (inactive)	29.5 µM (inactive)	20.4 µM (inactive)	52.7 µM (inactive)	60.3 µM (inactive)	31.3 µM (inactive)	16.9 µM (inactive)	18.6 µM (inactive)	25.4 µM (inactive)	16.6 µM (inactive)	18.3 µM (inactive)	21 µM (inactive)	44 µM (inactive)	24.3 µM (inactive)	20.9 µM (inactive)	16.1 µM (inactive)	17.5 µM (inactive)		
CN(CC(=O)O)c1ncc2c(n1)-c1ccccc1OC2	> 100 µM (inactive)	> 100 µM (inactive)	> 100 µM (inactive)	> 100 µM (inactive)	> 100 µM (inactive)	> 100 µM (inactive)	> 100 µM (inactive)	> 100 µM (inactive)	> 100 µM (inactive)	> 100 µM (inactive)	> 100 µM (inactive)	> 100 µM (inactive)	> 100 µM (inactive)	> 100 µM (inactive)	> 100 µM (inactive)	> 100 µM (inactive)	> 100 µM (inactive)		
NC12CC3CC4C1CC1CC2C(C3)C4(N)C1	> 100 µM (inactive)	> 100 µM (inactive)	> 100 µM (inactive)	> 100 µM (inactive)	> 100 µM (inactive)	> 100 µM (inactive)	> 100 µM (inactive)	> 100 µM (inactive)	> 100 µM (inactive)	> 100 µM (inactive)	> 100 µM (inactive)	> 100 µM (inactive)	> 100 µM (inactive)	> 100 µM (inactive)	> 100 µM (inactive)	> 100 µM (inactive)	> 100 µM (inactive)	> 100 µM (inactive)	
Cc1csc(NNC(=O)Nc2ccccc2)n1	> 100 µM (inactive)	> 100 µM (inactive)	> 100 µM (inactive)	> 100 µM (inactive)		> 100 µM (inactive)		45.7 µM (inactive)	> 100 µM (inactive)	> 100 µM (inactive)	> 100 µM (inactive)	> 100 µM (inactive)	> 100 µM (inactive)	> 100 µM (inactive)	> 100 µM (inactive)	> 100 µM (inactive)	> 100 µM (inactive)	> 100 µM (inactive)	> 100 µM (inactive)
Cc1cc2[nH]c3c(C#N)c(-c4ccccc4)c(/C=N/c4ccc(Cl)cc4)c(=O)n3c2cc1C	> 100 µM (inactive)		> 100 µM (inactive)	> 100 µM (inactive)		> 100 µM (inactive)		> 100 µM (inactive)	> 100 µM (inactive)	> 100 µM (inactive)	> 100 µM (inactive)	> 100 µM (inactive)	> 100 µM (inactive)	> 100 µM (inactive)		> 100 µM (inactive)	> 100 µM (inactive)	> 100 µM (inactive)	> 100 µM (inactive)
O=C1c2ccccc2-c2c1c(-c1ccccc1)c1n2C2(C(=O)c3ccccc3C2=O)C2C(=O)N(c3ccccc3)C(=O)C12 (stereo unspecified)	19.9 µM (inactive)	17.7 µM (inactive)	27.7 µM (inactive)	31.4 µM (inactive)	40.6 µM (inactive)	24 µM (inactive)	23.8 µM (inactive)	28.4 µM (inactive)	17.6 µM (inactive)	12.9 µM (inactive)	34.4 µM (inactive)	19.8 µM (inactive)	26.1 µM (inactive)	32.2 µM (inactive)		18.2 µM (inactive)	31.5 µM (inactive)	26.3 µM (inactive)	
Cc1ccc(-n2cnc3c(N/N=C4\SCC(=O)N4c4ccccc4)ncnc32)cc1	2.97 µM (inactive)	3.44 µM (inactive)	11.7 µM (inactive)	8.75 µM (inactive)	1.82 µM (inactive)	14.8 µM (inactive)	2.66 µM (inactive)	1.15 µM (inactive)	2.33 µM (inactive)	3.52 µM (inactive)	6.01 µM (inactive)	1.07 µM (active)	0.437 µM (active)	3.27 µM (inactive)	1.29 µM (inactive)	3.9 µM (inactive)	4.01 µM (inactive)	15.2 µM (inactive)	
COc1ccc(/C=C/C(=O)C(C)(C)Br)cc1	4.95 µM (inactive)		25.8 µM (inactive)		3.86 µM (inactive)	15.1 µM (inactive)	11.8 µM (inactive)	4.27 µM (inactive)	1.4 µM (inactive)	1.22 µM (inactive)	17.4 µM (inactive)	16.1 µM (inactive)	1.59 µM (inactive)	3.04 µM (inactive)	4.61 µM (inactive)	14.7 µM (inactive)	2.43 µM (inactive)	6.3 µM (inactive)	
COc1ccc(CNc2nc(NCc3ccc(OC)cc3)nc(NC3CCCC3)n2)cc1	> 19.8 µM (inactive)	3.04 µM (inactive)	6.28 µM (inactive)	> 25.4 µM (inactive)	4.59 µM (inactive)	19.9 µM (inactive)		6.43 µM (inactive)	0.665 µM (active)	2.99 µM (inactive)	4.02 µM (inactive)	0.28 µM (active)	2.24 µM (inactive)	4.06 µM (inactive)	2.99 µM (inactive)	3.76 µM (inactive)	4.14 µM (inactive)	3.07 µM (inactive)	
CSCCCNC(=O)c1csc(-c2csc(C(CNC(=O)OC(C)(C)C)CNC(=O)OC(C)(C)C)n2)n1	61.8 µM (inactive)		58.3 µM (inactive)	26.9 µM (inactive)	16.8 µM (inactive)	58.3 µM (inactive)	43 µM (inactive)	31.8 µM (inactive)	68.5 µM (inactive)	18.6 µM (inactive)	59.6 µM (inactive)	31 µM (inactive)	16.6 µM (inactive)	33.9 µM (inactive)	33.6 µM (inactive)	26.1 µM (inactive)	58.3 µM (inactive)	33.7 µM (inactive)	
[O-][N+]1=[N+]([O-])[C@@H](c2ccccc2)[C@H]1c1ccccc1	18 µM (inactive)	18.3 µM (inactive)	18.4 µM (inactive)	25 µM (inactive)	21.3 µM (inactive)	18.3 µM (inactive)	15.6 µM (inactive)	14.8 µM (inactive)	14.8 µM (inactive)	11.5 µM (inactive)	5.83 µM (inactive)	22.4 µM (inactive)	3.3 µM (inactive)	16.8 µM (inactive)	3.52 µM (inactive)	16.7 µM (inactive)	14.5 µM (inactive)	18.7 µM (inactive)	
COc1ccc(NC=O)c(C(O)CCNC(C)=O)c1 (stereo unspecified)	> 100 µM (inactive)	> 100 µM (inactive)	> 100 µM (inactive)	> 100 µM (inactive)	> 100 µM (inactive)	> 100 µM (inactive)	> 100 µM (inactive)	> 100 µM (inactive)	> 100 µM (inactive)	> 100 µM (inactive)	> 100 µM (inactive)	> 100 µM (inactive)	> 100 µM (inactive)	> 100 µM (inactive)	> 100 µM (inactive)	> 100 µM (inactive)	> 100 µM (inactive)		
Cc1ccc(Nc2nc(=O)c3c([nH]c4ccccc43)s2)cc1	15 µM (inactive)	10.8 µM (inactive)	26.4 µM (inactive)	18.1 µM (inactive)	21.7 µM (inactive)	27.8 µM (inactive)	10.1 µM (inactive)	2.9 µM (inactive)		14.6 µM (inactive)	8.55 µM (inactive)	3.43 µM (inactive)	20.1 µM (inactive)	15.4 µM (inactive)	6.27 µM (inactive)	8.32 µM (inactive)	10.8 µM (inactive)	10.2 µM (inactive)	
CCC(=O)N(c1ccccc1)C(C)CN1CCC(O)(c2ccccc2)CC1 (stereo unspecified)	> 100 µM (inactive)	58.3 µM (inactive)	> 100 µM (inactive)	> 100 µM (inactive)	> 100 µM (inactive)	> 100 µM (inactive)	> 100 µM (inactive)	> 100 µM (inactive)	> 100 µM (inactive)	> 100 µM (inactive)	> 100 µM (inactive)		> 100 µM (inactive)	> 100 µM (inactive)	74.1 µM (inactive)	> 100 µM (inactive)		> 100 µM (inactive)	
O=[N+]([O-])c1ccc2c(c1)c(S(=O)(=O)O)cc1nonc12	> 100 µM (inactive)	> 100 µM (inactive)	> 100 µM (inactive)	> 100 µM (inactive)	> 100 µM (inactive)	> 100 µM (inactive)	> 100 µM (inactive)	> 100 µM (inactive)		> 100 µM (inactive)	> 100 µM (inactive)	> 100 µM (inactive)		> 100 µM (inactive)	> 100 µM (inactive)	> 100 µM (inactive)	> 100 µM (inactive)	> 100 µM (inactive)	
COc1cc2c(cc1OCCCN1CCN(C)CC1)N=C[C@@H]1CCCN1C2=O	3.57 µM (inactive)	1.74 µM (inactive)	4.06 µM (inactive)	2.15 µM (inactive)	0.32 µM (active)	2.03 µM (inactive)	0.75 µM (active)	2.14 µM (inactive)	1.87 µM (inactive)	0.179 µM (active)	1.25 µM (inactive)	1.57 µM (inactive)	0.485 µM (active)	2.58 µM (inactive)	0.679 µM (active)	2.04 µM (inactive)	1.41 µM (inactive)	3.44 µM (inactive)	

— ChEMBL document CHEMBL1201862, “PubChem BioAssay data set” (2004)
